Data from patent US8883167B2, “Ethanol extract of Antrodia camphorata for inducing apoptosis and preparation method thereof” (Kaohsiung Medical University, priority 2009, dated 2014).
Converted amounts (≈) assume the structure as drawn.

Tested on: HL 60 cells
Assay: MTT cytotoxicity / antiproliferative assay on HL 60 cells
Format: cell-based
Conditions: Homo sapiens, Embodiment 1, 24 hours, read-out: 50% inhibition concentration (IC50) on HL 60 cells by MTT assay
Procedure: Human leukemia HL 60 cell line was purchased from American Type Culture Collection (ATCC, Manassas, Va.) and incubated in RPMI 1640 medium supplemented with 10% fetal calf serum, 2 mM glutamine, 100 units/ml penicillin and 100 μg/ml streptomycin at 37° C. in a humidified atmosphere of 5% carbon dioxide.
Cell viability was determined by the trypan blue dye exclusion and cytotoxicity was assessed by MTT assay. First, 1×10^5 HL 60 cells were plated in 96-well plates and treated with different concentrations of EEAC dissolved in dimethyl sulfoxide (DMSO) at the concentrations of 0 to 150 μg/ml for 24 hours. Death cells then were stained with trypan blue, and the survival cells were calculated with hemocytometer. In MTT assay, 1.2 mg/ml MTT was added in each well, which was incubated for 2 hours to form […], formazan. Formazan was dissolved in DMSO, and absorbance was detected at a wavelength of 570 nm.

Q: For `C=C(CC[C@@H](C)C1CCC2C3=C(C(=O)CC21C)C1(C)CCC(=O)[C@@H](C)C1CC3=O)C(C)C(=O)O` (stereo partly shown) [zhankuic acid A], which IC50 is on record?
A: Its IC50 is 5.45 µg/mL (≈ 11.6 µM).
